Results: article PMC11845761, “Intestinal human carboxylesterase 2 (CES2) expression rescues drug metabolism and most metabolic syndrome phenotypes in global Ces2 cluster knockout mice” (Acta Pharmacologica Sinica, 2024)
Marks after values point to notes of the source that are not given here.

Experiments:
[1] = Plasma pharmacokinetics of vinorelbine and deacetylvinorelbine after i.v. vinorelbine in CES2-modified mice; settings: male wild-type mice; i.v. vinorelbine 10 mg/kg; plasma
Method: In order to minimize variation among individuals, mice were fasted for 3 h before drug was administered orally or intravenously. […] For the vinorelbine 4-h experiment, 6-7 male mice received vinorelbine intravenously (10 mg/kg, 5 μL/g) or orally (10 mg/kg, 10 μL/g) using a blunt-ended needle. […] Time points of termination were chosen to allow both reasonable assessment of the plasma exposure of the compound and its main metabolites, and adequate measurement of tissue concentrations. In order to minimize the generation and use of mice, and as no pronounced sex differences were expected, female mice were used for the capecitabine studies and male mice for the vinorelbine studies. Tail vein blood sample collection (~50 μL) was performed using microvettes containing dipotassium-EDTA. All blood samples were rapidly placed on ice to limit any ongoing hydrolysis. At the last time point in each experiment (2 or 4 h), mice were anesthetized with 5% isoflurane and blood was collected by cardiac puncture. Cardiac puncture blood samples (600–800 μL) were collected in Eppendorf tubes containing heparin as an anticoagulant. The mice were then sacrificed by cervical dislocation and brain, liver, kidney, lung, small intestine and testis were rapidly removed. Plasma was isolated from the blood by centrifugation at 9000 × g for 6 min at 4 °C, and the plasma fraction was collected and stored at −30 °C until analysis. Organs were homogenized with 4% (w/v) bovine serum albumin and stored at −30 °C until analysis. Relative metabolite-to-parental drug ratio after drug administration was calculated by determining metabolite tissue concentration relative to corresponding parental drug concentration at the last time point.
(§1) Concentrations of capecitabine (and its metabolites) and vinorelbine (and its metabolite) in mouse plasma samples and organ homogenates were determined using two independent validated high-performance liquid chromatography-tandem mass spectrometry assays.
Pharmacokinetic parameters were calculated by non-compartmental methods using the PK solver software. The area under the plasma concentration-time curve (AUC) was calculated using the trapezoidal rule, without extrapolating to infinity. The peak plasma concentration (Cmax) and the time of maximum plasma concentration (Tmax) were estimated from the original (individual mouse) data. One-way analysis of variance (ANOVA) was used when multiple groups were compared and the Tukey’s test post hoc correction was used to accommodate multiple testing. The two-sided unpaired Student’s t-test was used when treatments or differences between two specific groups were compared. Kruskal-Wallis rank test was used for semi-quantitative assessment for (H&E)-staining of white adipose tissue and Oil Red O-staining of liver. All statistical analyses were performed using the software GraphPad Prism 8 (GraphPad Software Inc., La Jolla, CA, USA). All the linear data were log-transformed before statistical tests were applied. Differences were considered statistically significant when P < 0.05. All data are presented as mean ± SD.

[2] = Plasma pharmacokinetics of vinorelbine and deacetylvinorelbine after oral vinorelbine in CES2-modified mice; type: in vivo, mouse; settings: oral vinorelbine 10 mg/kg; for AUC0-4h / AUC0-4h ratio (× 10^−3) (deacetylvinorelbine/vinorelbine) / Cmax / Tmax: plasma
Method: (§2) For capecitabine 2-h experiments, 6–7 female mice received oral capecitabine (500 mg/kg, 10 μL/g), and tail vein blood samples were collected at 0.125, 0.25, 0.5 and 1 h after drug administration. For the vinorelbine 4-h experiment, 6-7 male mice received vinorelbine intravenously (10 mg/kg, 5 μL/g) or orally (10 mg/kg, 10 μL/g) using a blunt-ended needle. Tail vein blood samples were collected at 0.125, 0.25, 0.5, 1 and 2 h after drug administration. […] At the last time point in each experiment (2 or 4 h), mice were anesthetized with 5% isoflurane and blood was collected by cardiac puncture. […] Plasma was isolated from the blood by centrifugation at 9000 × g for 6 min at 4 °C, and the plasma fraction was collected and stored at −30 °C until analysis.
as §1
(§3) Pharmacokinetic parameters were calculated by non-compartmental methods using the PK solver software. […] Differences were considered statistically significant when P < 0.05. All data are presented as mean ± SD.

[3] = Tissue concentrations of vinorelbine and deacetylvinorelbine 4 h after i.v. vinorelbine in CES2-modified mice; type: in vivo, mouse; settings: i.v. vinorelbine 10 mg/kg
Method: as §2, §1, §3

## CCC1=C[C@@H]2CN(C1)Cc1c([nH]c3ccccc13)[C@@](C(=O)OC)(c1cc3c(cc1OC)N(C)[C@H]1[C@@](O)(C(=O)OC)[C@H](O)[C@]4(CC)C=CCN5CC[C@]31[C@@H]54)C2 [Deacetylvinorelbine, 4’-O-deacetylvinorelbine]
[1]
  Tmax: 0.46 ± 0.76 h
[2]; male Ces2^–/– mice
  AUC0-4h: 1.0 ± 0.4 ng·h/mL
  AUC0-4h ratio (× 10^−3) (deacetylvinorelbine/vinorelbine): 2.0 ± 0.4 × 10^−3
  Cmax: 0.42 ± 0.15 ng/mL
  Tmax: 3.7 ± 0.8 h
[2]; male Ces2^–/–A mice
  AUC0-4h: 3.7 ± 2.2 ng·h/mL
  AUC0-4h ratio (× 10^−3) (deacetylvinorelbine/vinorelbine): 6.3 ± 7.8 × 10^−3
  Cmax: 1.5 ± 1.1 ng/mL
  Tmax: 2.6 ± 1.0 h
[2]; male Ces2^–/–V mice
  AUC0-4h: 3.3 ± 2.3 ng·h/mL
  AUC0-4h ratio (× 10^−3) (deacetylvinorelbine/vinorelbine): 5.3 ± 1.9 × 10^−3
  Cmax: 1.4 ± 1.2 ng/mL
  Tmax: 2.7 ± 1.0 h
[2]; male mice
  plasma AUC0-4h, fold increase in Ces2^–/–A compared with Ces2^–/– mice: 3.7 fold
  plasma AUC0-4h, fold increase in Ces2^–/–V compared with Ces2^–/– mice: 3.3 fold
[2]; male wild-type mice
  AUC0-4h: 238 ± 112 ng·h/mL
  AUC0-4h ratio (× 10^−3) (deacetylvinorelbine/vinorelbine): 640 ± 170 × 10^−3
  Cmax: 91 ± 44 ng/mL
  Tmax: 1.7 ± 0.7 h
[3]; male Ces2^–/– mice
  CSI (small intestine tissue concentration): 87 ± 15 ng/g
  CSIC (small intestine contents concentration): 291 ± 180 ng/g
  Ccolon (colon concentration): 58 ± 45 ng/g
  Cliver (liver concentration): 487 ± 127 ng/g
  Colon Ratio (x 10^-3) (deacetylvinorelbine /vinorelbine): 9.4 ± 3.8 x 10^-3
  Liver Ratio (x 10^-3) (deacetylvinorelbine /vinorelbine): 21 ± 1.9 x 10^-3
  Small intestine Ratio (x 10^-3) (deacetylvinorelbine /vinorelbine): 15 ± 1.2 x 10^-3
  Small intestine contents Ratio (x 10^-3) (deacetylvinorelbine /vinorelbine): 7.4 ± 1.0 x 10^-3
  liver deacetylvinorelbine-to-vinorelbine ratio: 0.021 ± 0.002
  small intestine conversion ratio (deacetylvinorelbine-to-vinorelbine): 0.015 ± 0.001
[3]; male Ces2^–/–A mice
  CSI (small intestine tissue concentration): 79 ± 13 ng/g
  CSIC (small intestine contents concentration): 400 ± 315 ng/g
  Ccolon (colon concentration): 42 ± 43 ng/g
  Cliver (liver concentration): 584 ± 157 ng/g
  Colon Ratio (x 10^-3) (deacetylvinorelbine /vinorelbine): 7.0 ± 3.7 x 10^-3
  Liver Ratio (x 10^-3) (deacetylvinorelbine /vinorelbine): 25± 7.0 x 10^-3
  Small intestine Ratio (x 10^-3) (deacetylvinorelbine /vinorelbine): 14 ± 1.0 x 10^-3
  Small intestine contents Ratio (x 10^-3) (deacetylvinorelbine /vinorelbine): 8.1 ± 1.1 x 10^-3
  liver deacetylvinorelbine-to-vinorelbine ratio: 0.025 ± 0.0070
  small intestine conversion ratio (deacetylvinorelbine-to-vinorelbine): 0.014 ± 0.001
[3]; male Ces2^–/–V mice
  CSI (small intestine tissue concentration): 134 ± 47***^ ng/g
  CSIC (small intestine contents concentration): 511 ± 322 ng/g
  Ccolon (colon concentration): 120 ± 45***^ ng/g
  Cliver (liver concentration): 513 ± 61 ng/g
  Colon Ratio (x 10^-3) (deacetylvinorelbine /vinorelbine): 17 ± 4.7***^^ x 10^-3
  Liver Ratio (x 10^-3) (deacetylvinorelbine /vinorelbine): 22 ± 6.6 x 10^-3
  Small intestine Ratio (x 10^-3) (deacetylvinorelbine /vinorelbine): 17 ± 2.2***^^ x 10^-3
  Small intestine contents Ratio (x 10^-3) (deacetylvinorelbine /vinorelbine): 10 ± 1.0 x 10^-3
  liver deacetylvinorelbine-to-vinorelbine ratio: 0.022 ± 0.007
  small intestine conversion ratio (deacetylvinorelbine-to-vinorelbine): 0.017 ± 0.002
[3]; male wild-type mice
  CSI (small intestine tissue concentration): 2214 ± 605 ng/g
  CSIC (small intestine contents concentration): 27594 ± 13421 ng/g
  Ccolon (colon concentration): 780 ± 199 ng/g
  Cliver (liver concentration): 26773 ± 10517 ng/g
  Colon Ratio (x 10^-3) (deacetylvinorelbine /vinorelbine): 340 ± 70 x 10^-3
  Liver Ratio (x 10^-3) (deacetylvinorelbine /vinorelbine): 2500 ± 1300 x 10^-3
  Small intestine Ratio (x 10^-3) (deacetylvinorelbine /vinorelbine): 630 ± 46 x 10^-3
  Small intestine contents Ratio (x 10^-3) (deacetylvinorelbine /vinorelbine): 1000 ± 270 x 10^-3
  liver deacetylvinorelbine-to-vinorelbine ratio: 2.5 ± 1.3
  small intestine conversion ratio (deacetylvinorelbine-to-vinorelbine): 0.63 ± 0.05
